# According to PMC10643470, “Knockout or inhibition of USP30 protects dopaminergic neurons in a Parkinson’s disease mouse model” (Nature Communications, 2023):
# “And” between values parts separate entries of the source, which are not always exact repeats. Equal entries are not always repeated.
# Key:
# CYLD = CYLD (Homo sapiens, UniProt Q9NQC7); test: DUB/cathepsin selectivity biochemical assay
# USP35 = USP35 (Homo sapiens, UniProt Q9P2H5); test: DUB/cathepsin selectivity biochemical assay
# USP11 = USP11 (Homo sapiens, UniProt P51784); test: DUB/cathepsin selectivity biochemical assay
# USP1 = USP1 (Homo sapiens, UniProt O94782); test: DUB/cathepsin selectivity biochemical assay
# [1] = In-life whole blood compound levels in the A53T model; assay type: in vivo, mouse; details: for Blood exposure / Cmax: A53T model; for Blood exposure: 0.5-6 h sampling; for In-life whole blood compound level (Figure 4d): individual animals; for Cmax: mouse, whole blood, seven days before end of study
# Description: In-life blood samples were taken at 0.5, 1, 2, 4, 6 h, timed relative to the first daily dose, from n = 3 animals per time point to give a composite profile from animals in each group. The in-life blood samples were collected from the saphenous vein (20 µL), transferred in an Eppendorf tube immediately and mixed with an equal volume (20 µL) of ice-cold Serine esterase inhibitor, trichlorfon (100 µM), the sample was frozen, stored at −80 °C and compound levels analyzed by LC-MS.
# CEZANNE1 = CEZANNE1 (Homo sapiens, UniProt Q6GQQ9); test: DUB/cathepsin selectivity biochemical assay
# [2] = system: TOM20-ubiquitylation in alpha-synuclein A53T mutated iPSC-derived dopaminergic neurons; test: TOM20-ubiquitylation in A53T iPSC-derived dopaminergic neurons; assay type: cell-based, human; details: no exogenous stimuli
# Description: Donor-derived DopaNeuron lines were generated from source material provided by the Parkinson’s Progression Markers Initiative (PPMI) through The Michael J. Fox Foundation. Human iPS cells-derived DopaNeurons were purchased from Fujifilm/Cellular Dynamics. Apparently healthy normal (AHN) (catalog # R1088) or alpha-synuclein A53T mutated (A53T) (catalog # R1109) iPSC-derived dopaminergic neurons (dopaneurons) were thawed from liquid nitrogen. 400 000 viable (counted using a cell counter) dopaneurons […] were plated per well into 24 well plates on day 0 in complete maintenance medium (CMM).
# A half-medium change was performed on the cells on Day 3 with CMM. On Day 5 cells were half-medium changed with complete brainphys medium. […] Cells were given half medium changes with or without compounds (depending on whether treatments with compound had started) every 2-3 days.
# USP32 = USP32 (Homo sapiens, UniProt Q8NFA0); test: DUB/cathepsin selectivity biochemical assay
# USP20 = USP20 (Homo sapiens, UniProt Q9Y2K6); test: DUB/cathepsin selectivity biochemical assay
# USP9x = USP9x (Homo sapiens, UniProt Q93008); test: DUB/cathepsin selectivity biochemical assay
# [3] = system: AAV-A53T-SNCA PD mouse model; test: TH+ neuron counting in SNpc, AAV-A53T-SNCA mouse model (compound study); assay type: in vivo
# Description: For the compound study, the fixed, cryoprotected and frozen midbrain samples were sectioned as coronal sections at 100 µm intervals through SNpc and ventral tegmental area (VTA) and mounted on glass slides. Sectioning was started at −2.6 mm from bregma and continued to −3.7 mm from bregma in the AP axis (coordinates based on Franklin & Paxinos: The Mouse Brain in Stereotaxic Coordinates). For the immunostaining, the sections were stained with anti-TH following permeabilization. The stained sections were scanned with the Olympus VS120 slide scanner and analyzed with a VIS-Visiopharm Integrator System (Visiopharm, Denmark) by a blinded data analyst. All cells of interest with visible nuclei were labeled manually and counted using an APP (Analysis Protocol Package), scaled by section thickness and sectioning interval to estimate the total cell population in the SNpc. For immunostaining of Ser129 αSyn phosphorylation, TSA amplification was used with primary antibody ab51253 (Abcam). Blinded analysis was used, and positive cells per area were determined. For dual IF IHC of Iba1 (WAKO) and GFAP (ab4674 – Abcam), the stained sections were scanned and analyzed by a blinded data analyst. Analysis determines the percentage of positive staining area [%area = (stained area/region area) * (100)]. To calculate % of stained area, the same threshold value was applied to all sections with the same antibody staining. All pixels above the threshold value were considered positive. All striatal densitometry and neuronal counting data for both KO and inhibitor studies were obtained by an investigator blinded to genotype and treatment.
# USP48 = USP48 (Homo sapiens, UniProt Q86UV5); test: DUB/cathepsin selectivity biochemical assay
# BAP1 = BAP1 (Homo sapiens, UniProt Q92560); test: DUB/cathepsin selectivity biochemical assay
# Sequence of USP20 (Q9Y2K6 whole entry, species assumed): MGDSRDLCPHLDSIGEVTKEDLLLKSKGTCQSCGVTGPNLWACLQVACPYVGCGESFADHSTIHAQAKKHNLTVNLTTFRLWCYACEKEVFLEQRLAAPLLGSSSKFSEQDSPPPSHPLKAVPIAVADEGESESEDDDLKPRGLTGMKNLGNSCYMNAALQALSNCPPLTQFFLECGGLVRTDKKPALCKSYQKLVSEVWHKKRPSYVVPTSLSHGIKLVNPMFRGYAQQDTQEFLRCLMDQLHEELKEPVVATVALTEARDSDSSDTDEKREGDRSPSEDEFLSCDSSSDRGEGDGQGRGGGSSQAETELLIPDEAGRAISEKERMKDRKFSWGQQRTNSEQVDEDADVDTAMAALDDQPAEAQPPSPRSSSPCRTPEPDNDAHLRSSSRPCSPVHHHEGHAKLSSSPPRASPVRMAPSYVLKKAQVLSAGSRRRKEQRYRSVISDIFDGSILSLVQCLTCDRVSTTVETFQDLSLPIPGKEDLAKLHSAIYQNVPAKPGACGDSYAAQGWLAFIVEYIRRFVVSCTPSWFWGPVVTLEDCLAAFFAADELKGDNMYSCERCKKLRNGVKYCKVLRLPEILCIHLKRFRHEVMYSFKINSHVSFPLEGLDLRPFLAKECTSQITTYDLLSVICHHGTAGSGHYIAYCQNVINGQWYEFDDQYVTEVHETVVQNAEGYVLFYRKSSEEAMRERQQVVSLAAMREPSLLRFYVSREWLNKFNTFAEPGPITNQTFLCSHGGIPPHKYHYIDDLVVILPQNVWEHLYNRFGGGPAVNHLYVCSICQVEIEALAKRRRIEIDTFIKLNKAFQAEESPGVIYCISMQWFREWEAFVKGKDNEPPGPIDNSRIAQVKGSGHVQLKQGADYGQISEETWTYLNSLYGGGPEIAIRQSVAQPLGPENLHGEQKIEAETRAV
# Sequence of USP32 (Q8NFA0 whole entry, species assumed): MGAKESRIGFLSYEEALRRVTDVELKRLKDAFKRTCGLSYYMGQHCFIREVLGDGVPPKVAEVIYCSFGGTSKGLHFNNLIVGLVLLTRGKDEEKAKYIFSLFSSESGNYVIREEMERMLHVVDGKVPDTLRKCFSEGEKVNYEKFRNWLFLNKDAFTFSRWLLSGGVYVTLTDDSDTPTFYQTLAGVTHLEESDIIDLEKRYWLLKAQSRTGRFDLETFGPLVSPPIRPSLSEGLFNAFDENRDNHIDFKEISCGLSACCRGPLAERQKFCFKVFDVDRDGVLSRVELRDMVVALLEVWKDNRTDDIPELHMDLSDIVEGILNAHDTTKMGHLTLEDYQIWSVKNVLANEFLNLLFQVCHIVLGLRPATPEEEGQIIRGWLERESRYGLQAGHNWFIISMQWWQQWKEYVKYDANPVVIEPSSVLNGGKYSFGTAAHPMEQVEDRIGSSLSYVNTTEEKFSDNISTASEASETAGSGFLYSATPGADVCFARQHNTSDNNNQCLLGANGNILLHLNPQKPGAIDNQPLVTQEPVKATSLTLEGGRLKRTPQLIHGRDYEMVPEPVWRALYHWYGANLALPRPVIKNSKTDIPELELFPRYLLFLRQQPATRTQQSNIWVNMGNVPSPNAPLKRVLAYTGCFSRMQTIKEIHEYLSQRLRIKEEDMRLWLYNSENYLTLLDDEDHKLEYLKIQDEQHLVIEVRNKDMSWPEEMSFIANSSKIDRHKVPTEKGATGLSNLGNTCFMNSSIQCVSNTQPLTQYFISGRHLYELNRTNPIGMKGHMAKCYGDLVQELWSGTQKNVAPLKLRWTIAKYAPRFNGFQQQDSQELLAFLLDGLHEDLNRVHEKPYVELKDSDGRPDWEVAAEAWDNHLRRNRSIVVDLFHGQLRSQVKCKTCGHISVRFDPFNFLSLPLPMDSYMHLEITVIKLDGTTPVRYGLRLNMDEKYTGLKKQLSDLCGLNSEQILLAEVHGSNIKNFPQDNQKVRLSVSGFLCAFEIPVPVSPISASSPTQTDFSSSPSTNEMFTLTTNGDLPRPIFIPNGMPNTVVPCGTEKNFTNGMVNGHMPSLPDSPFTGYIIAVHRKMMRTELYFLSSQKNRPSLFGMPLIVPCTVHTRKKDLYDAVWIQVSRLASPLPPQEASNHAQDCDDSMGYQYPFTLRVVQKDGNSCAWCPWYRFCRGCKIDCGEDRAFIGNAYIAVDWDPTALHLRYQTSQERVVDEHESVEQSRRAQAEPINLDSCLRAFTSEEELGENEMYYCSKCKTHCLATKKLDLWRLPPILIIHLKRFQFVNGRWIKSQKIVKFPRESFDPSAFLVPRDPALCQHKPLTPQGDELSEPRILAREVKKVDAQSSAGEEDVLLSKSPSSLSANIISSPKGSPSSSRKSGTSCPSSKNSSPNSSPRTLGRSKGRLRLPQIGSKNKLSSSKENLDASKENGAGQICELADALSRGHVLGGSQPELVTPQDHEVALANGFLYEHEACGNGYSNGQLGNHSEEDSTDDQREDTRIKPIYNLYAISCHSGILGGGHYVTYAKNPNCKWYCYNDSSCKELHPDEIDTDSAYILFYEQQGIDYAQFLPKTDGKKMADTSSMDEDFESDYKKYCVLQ
# Sequence of USP35 (Q9P2H5 whole entry, species assumed): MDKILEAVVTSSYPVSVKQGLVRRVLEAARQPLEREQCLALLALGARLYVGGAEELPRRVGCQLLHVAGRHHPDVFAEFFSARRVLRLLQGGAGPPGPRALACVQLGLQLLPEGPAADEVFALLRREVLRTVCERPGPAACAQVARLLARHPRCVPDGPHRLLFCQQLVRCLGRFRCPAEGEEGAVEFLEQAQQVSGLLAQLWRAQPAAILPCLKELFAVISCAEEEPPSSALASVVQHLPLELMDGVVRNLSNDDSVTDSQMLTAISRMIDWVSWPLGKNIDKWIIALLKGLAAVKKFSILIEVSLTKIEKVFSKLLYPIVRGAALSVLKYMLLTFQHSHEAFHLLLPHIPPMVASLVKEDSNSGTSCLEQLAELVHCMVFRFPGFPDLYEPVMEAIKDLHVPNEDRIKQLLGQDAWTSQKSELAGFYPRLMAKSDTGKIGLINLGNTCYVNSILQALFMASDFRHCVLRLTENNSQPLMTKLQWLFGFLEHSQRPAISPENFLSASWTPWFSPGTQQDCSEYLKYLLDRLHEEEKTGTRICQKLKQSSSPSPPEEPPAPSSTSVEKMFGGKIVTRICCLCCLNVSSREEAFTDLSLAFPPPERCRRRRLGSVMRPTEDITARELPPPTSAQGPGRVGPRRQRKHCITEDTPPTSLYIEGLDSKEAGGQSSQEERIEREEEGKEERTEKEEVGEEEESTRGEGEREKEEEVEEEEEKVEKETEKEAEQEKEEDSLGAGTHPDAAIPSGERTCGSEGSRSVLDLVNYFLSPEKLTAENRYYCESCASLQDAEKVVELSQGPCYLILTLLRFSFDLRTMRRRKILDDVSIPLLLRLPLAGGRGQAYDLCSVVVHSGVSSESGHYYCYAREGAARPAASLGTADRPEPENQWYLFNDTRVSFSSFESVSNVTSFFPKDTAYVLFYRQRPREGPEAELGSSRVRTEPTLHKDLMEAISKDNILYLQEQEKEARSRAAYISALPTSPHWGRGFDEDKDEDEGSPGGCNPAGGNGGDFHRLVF
# Sequence of CYLD (Q9NQC7 whole entry, species assumed): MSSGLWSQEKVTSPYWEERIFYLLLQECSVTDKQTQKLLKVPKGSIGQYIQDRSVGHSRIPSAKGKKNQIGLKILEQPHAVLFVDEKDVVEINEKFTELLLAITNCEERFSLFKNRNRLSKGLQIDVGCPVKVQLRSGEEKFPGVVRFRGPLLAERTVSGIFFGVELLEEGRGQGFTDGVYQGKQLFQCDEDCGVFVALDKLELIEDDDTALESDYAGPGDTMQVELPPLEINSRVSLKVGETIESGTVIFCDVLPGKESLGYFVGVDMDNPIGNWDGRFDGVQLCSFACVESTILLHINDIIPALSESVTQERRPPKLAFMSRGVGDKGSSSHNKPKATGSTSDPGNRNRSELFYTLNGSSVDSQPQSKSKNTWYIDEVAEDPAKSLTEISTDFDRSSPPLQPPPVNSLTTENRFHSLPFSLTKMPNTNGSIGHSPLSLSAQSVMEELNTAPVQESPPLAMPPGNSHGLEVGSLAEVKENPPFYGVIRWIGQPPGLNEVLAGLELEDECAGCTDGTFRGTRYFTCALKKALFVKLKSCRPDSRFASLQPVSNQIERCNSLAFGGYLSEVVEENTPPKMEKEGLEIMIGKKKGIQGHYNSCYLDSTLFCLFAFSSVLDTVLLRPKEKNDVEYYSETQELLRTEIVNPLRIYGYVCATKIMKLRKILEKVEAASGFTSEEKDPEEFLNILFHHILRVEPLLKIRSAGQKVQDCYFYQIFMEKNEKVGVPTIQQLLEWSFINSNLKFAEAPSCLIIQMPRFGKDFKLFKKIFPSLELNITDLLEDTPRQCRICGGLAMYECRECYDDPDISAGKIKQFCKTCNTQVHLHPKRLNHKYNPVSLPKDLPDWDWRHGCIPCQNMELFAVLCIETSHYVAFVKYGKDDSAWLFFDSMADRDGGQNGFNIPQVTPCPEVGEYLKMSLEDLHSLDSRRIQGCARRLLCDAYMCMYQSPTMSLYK
smiles,measurement,setting,value
C[C@@H]1[C@H]2CCN(C(=O)c3ncc(-c4ccnc(C#N)c4)o3)[C@H]2CN1C#N [MTX115325],IC50,CYLD,> 300 µM
same,IC50,USP35,> 300 µM
same,IC50,USP11,291 µM
same,IC50,USP1,> 300 µM
same,Blood exposure,[1]; 15 mg/kg BID oral,13606 ng·h/mL
same,In-life whole blood compound level (Figure 4d),"[1]; 15mg/kg, 0 hours",0
same,In-life whole blood compound level (Figure 4d),"[1]; 15mg/kg, 0.5 hours",6664.93 and 11816.1
same,In-life whole blood compound level (Figure 4d),"[1]; 15mg/kg, 1 hour",7008.88 and 8260.64
same,In-life whole blood compound level (Figure 4d),"[1]; 15mg/kg, 2 hours",2278.7 and 2189.81
same,In-life whole blood compound level (Figure 4d),"[1]; 15mg/kg, 4 hours",404.48 and 419 and 425.15
same,In-life whole blood compound level (Figure 4d),"[1]; 15mg/kg, 6 hours",92.39 and 277.42
same,Blood exposure,[1]; 50 mg/kg BID oral,42959 ng·h/mL
same,In-life whole blood compound level (Figure 4d),"[1]; 50mg/kg, 0 hours",0
same,In-life whole blood compound level (Figure 4d),"[1]; 50mg/kg, 0.5 hours",12073.7 and 13499.1 and 13769.4
same,In-life whole blood compound level (Figure 4d),"[1]; 50mg/kg, 1 hour",13326.8 and 14323.4 and 17878.5
same,In-life whole blood compound level (Figure 4d),"[1]; 50mg/kg, 2 hours",8220.29 and 5260.76
same,In-life whole blood compound level (Figure 4d),"[1]; 50mg/kg, 4 hours",1244.02 and 1284.38
same,In-life whole blood compound level (Figure 4d),"[1]; 50mg/kg, 6 hours",402.46 and 633.68
same,Cmax,[1]; 15 mg/kg BID oral,7550 ng/mL
same,Cmax,[1]; 50 mg/kg BID oral,16400 ng/mL
same,IC50,CEZANNE1,> 300 µM
same,TOM20-ubiquitylation,"[2]; A53T neurons, 7 days at 10 nM, 100 nM or 1 µM",caused the upregulation of TOM20-ubiquitylation
same,TOM20-ubiquitylation,"[2]; A53T αSyn background, 24 h, 1 µM",increased TOM20-ubiquitylation
same,IC50,USP32,120 µM
same,IC50,USP20,> 300 µM
same,IC50,USP9x,> 300 µM
same,Percentage of ipsilateral vs contralateral TH+ neurons,"[3]; 50 mg/kg BID oral, 10 weeks, vehicle 61.7%, p 0.029",89.08%
same,Percentage of ipsilateral vs contralateral TH+ neurons in SNpc,"[3]; AAV-A53T-SNCA mice, individual animals",43.6893 and 97.2222 and 27.4336 and 125.243 and 125 and 105.063 and 101.25 and 55.1724 and 95.8333 and 93.9394 and 113.861 and 96.0526 and 68.5315 and 98.8095
same,Beneficial effects at lower doses in a subsequent study,"[3]; lower doses, doses not given, peer review reply",not show beneficial effects
same,IC50,USP48,> 300 µM
same,IC50,BAP1,> 300 µM
